Results from article PMC4496089, “Screening for FtsZ Dimerization Inhibitors Using Fluorescence Cross-Correlation Spectroscopy and Surface Resonance Plasmon Analysis” (PLoS ONE, 2015).
≈ marks a conversion by molar mass, not a printed value. Entries after “also recorded” stand apart in the source; their conditions may differ. Read-outs that look alike come from different tables or passages of the source.

Tests used:
[1] = test system: S. aureus ATCC 29213 (MSSA); experiment: Antibiotic susceptibility test (broth microdilution MIC); assay type: cell-based, Staphylococcus aureus; conditions: for MIC: Staphylococcus aureus, read-out: Minimal inhibitory concentration
Experimental: (§1) Antimicrobial susceptibility testing was performed by broth microdilution in cation-adjusted Mueller–Hinton broth (CAMHB) according to the CLSI guidelines. Overnight culture was suspended in CAMHB, and the OD625 was measured using an Ultrospec 6300 pro spectrophotometer (GE Healthcare). The culture suspension was diluted to 0.01 of the OD625, and 5 μL of it was inoculated into test medium containing the test chemical. Then incubation was performed at 35°C for 16 to 20 hours. The final inoculum size corresponded to ca. 5 x 10^4 CFU per well, which corresponded to ca. 5 x 10^5 CFU/mL. The minimum inhibitory concentration (MIC) endpoint was defined as the lowest concentration of the test chemical that inhibited bacterial growth as detected by the unaided eye.

[2] = test system: S. aureus FtsZ (FtsZ^K175D_N-terminal-EGFP and FtsZ_C-terminal-mCherry); experiment: FCCS screening for inhibition of GTP-dependent head-to-tail dimerization of fragmented FtsZ; assay type: biochemical, Staphylococcus aureus; conditions: from FCCS binding ratio; chemical 20 or 100 μM, GTP 2 mM, 30 min; mean (SD), n = 3
Experimental: The purified FtsZ^K175D_N-terminal-EGFP and FtsZ_C-terminal-mCherry were mixed in 0.44–0.85 μM each in a buffer composed of 50 mM Tris-HCl [pH 8.0], 500 mM Na2SO4 and 5 mM MgCl2. Mixed samples were dispensed as 48.5 μL aliquots into a 384-well glass bottom microplate (Olympus) and a 0.5 μL aliquot of the chemical at a concentration of 2 or 10 mM was added to each well. The final concentration of the chemicals was 20 or 100 μM. After mixing, FCCS measurement was performed (premeasurement, data not shown). After premeasurement of FCCS, 1 μL of GTP (100 mM) was added to each well (final concentration: 2 mM). After mixing and 30 min incubation at room temperature, FCCS measurement was performed. Using samples purified on a different day, independent screening was performed 3 times.
The data acquired from FCCS were analyzed using ZEN software (Zeiss, Germany). The fluorescence autocorrelation functions from the green, G G (τ), and red channels, G R (τ), and the fluorescence cross-correlation functions, G C (τ) were calculated according to the normalized correlation function. GG(τ)=1+⟨δIG(t)⋅δIG(t+τ)⟩/⟨IG(t)⟩⋅⟨IG(t)⟩ (1) GR(τ)=1+⟨δIR(t)⋅δIR(t+τ)⟩/⟨IR(t)⟩⋅⟨IR(t)⟩ (2) GC(τ)=1+⟨δIG(t)⋅δIR(t+τ)⟩/⟨IG(t)⟩⋅⟨IR(t)⟩ (3) where τ denotes the time delay, I G is the fluorescent intensity of the green channel, and I R is the fluorescent intensity of the red channel. The acquired autocorrelations were fitted using a two-component model, and cross-correlation was fitted using a one-component model. G(τ)=1+1−Ftriplet+Ftripletexp(−τ/τtrplet)/N(1−Ftriplet)×((Ffast/1+τ/τfast)1/1+τ/s^2τfast+(Fslow/1+τ/τslow)1/1+τ/s^2τslow) (4) where F triplet is the average fraction of triplet state molecules (in the fitting of cross-correlation, assuming F triplet is 0), τ triplet is the triplet relaxation time, and F fast and F slow are the fractions of the fast and slow components, respectively. τ fast and τ slow are the diffusion times of the fast and slow components, respectively. In the fitting of G G (τ), τ fast was fixed in the range from 100 to 200 μs. In the fitting of G R (τ), τ fast was fixed in the range from 200 to 300 μs. N is the average number of fluorescent particles in the excitation-detection volume defined by radius w, z is half of the long axis of the confocal volume element, and s is the structural parameter representing the ratio s = z/w. The values of w i (i = G or R) are determined from the diffusion coefficients of the rhodamine 6G and Alexa Fluor 594 used as standard dyes, respectively.
The average number calculated from autocorrelation N G and N R and complex cross-correlated particles N C is given by NG=1/GG(0)−1 (5) NR=1/GR(0)−1 (6) NC=GC(0)−1/(GR(0)−1)⋅(GG(0)−1) (7)
The binding ratio (BR), which directly indicates the tendency of interaction between FtsZ^K175D_N-terminal-EGFP and FtsZ_C-terminal-mCherry, was defined by the following Eq (8). When a chemical has a higher inhibitory effect, BR should be lower. BR=NC/NG (8)
Moreover, inhibition % was calculated using the following Eq (9). The inhibition % should be higher when the chemical has a higher inhibitory effect. inhibition%=BRDMSO,GTP(+)−BRchemical,GTP(+)/BRDMSO,GTP(+)×100 (9) where BR DMSO,GTP(+) is the binding ratio in the presence of DMSO (vehicle) and GTP is the control value indicating no inhibition, BR chemical,GTP(+) is the binding ratio in the presence a chemical and GTP. Considering the background, Eq (9) can be shown as follows. inhibition%=(BRDMSO,GTP(+)−BRbackground)−(BRchemical,GTP(+)−BRbackground)/BRDMSO,GTP(+)−BRbackground×100=BRDMSO,GTP(+)−BRchemical,GTP(+)/BRDMSO,GTP(+)−BRbackground×100 (10) where BR background is the binding ratio of the background obtained in the absence of GTP.

A. baumannii ATCC 19606 = experiment: Antibiotic susceptibility test (broth microdilution MIC); assay type: cell-based; conditions: Acinetobacter baumannii
Experimental: as §1

H. influenzae ATCC 10211 = experiment: as above; assay type: cell-based; conditions: Haemophilus influenzae
Experimental: as §1

E. faecalis SR7914 (VRE) = experiment: as above; assay type: cell-based; conditions: Enterococcus faecalis, read-out: Minimal inhibitory concentration
Experimental: as §1

E. faecium ATCC 19434 = experiment: as above; assay type: cell-based; conditions: Enterococcus faecium
Experimental: as §1

E. coli ATCC 25922 = experiment: as above; assay type: cell-based; conditions: Escherichia coli
Experimental: as §1

E. faecium SR7917 (VRE) = experiment: as above; assay type: cell-based; conditions: Enterococcus faecium, read-out: Minimal inhibitory concentration
Experimental: as §1

K. pneumoniae ATCC 13883 = experiment: as above; assay type: cell-based; conditions: Klebsiella pneumoniae
Experimental: as §1

S. aureus SR3637 (MRSA) = experiment: as above; assay type: cell-based; conditions: Staphylococcus aureus, read-out: Minimal inhibitory concentration
Experimental: as §1

S. pneumoniae Type I = experiment: as above; assay type: cell-based; conditions: Streptococcus pneumoniae, read-out: Minimal inhibitory concentration
Experimental: as §1

P. aeruginosa ATCC 27853 = experiment: as above; assay type: cell-based; conditions: Pseudomonas aeruginosa
Experimental: as §1

E. faecalis ATCC 29212 = experiment: as above; assay type: cell-based; conditions: Enterococcus faecalis
Experimental: as §1

[3] = test system: panel of type strains of Gram-positive and Gram-negative bacterial pathogens; experiment: Antibiotic susceptibility test, summary over the whole panel; assay type: cell-based; conditions: MIC panel of Gram-positive and Gram-negative type strains
Experimental: as §1

[4] = S. aureus ATCC 29213 (MSSA), CAMHB, 35°C, 16 to 20 hours
[5] = ATCC19606, A. baumannii ATCC 19606, CAMHB, 35°C, 16 to 20 hours, read-out: Minimal inhibitory concentration
[6] = ATCC10211, H. influenzae ATCC 10211, CAMHB, 35°C, 16 to 20 hours, read-out: Minimal inhibitory concentration
[7] = E. faecalis SR7914 (VRE), CAMHB, 35°C, 16 to 20 hours
[8] = ATCC19434, E. faecium ATCC 19434, CAMHB, 35°C, 16 to 20 hours, read-out: Minimal inhibitory concentration
[9] = ATCC25922, E. coli ATCC 25922, CAMHB, 35°C, 16 to 20 hours, read-out: Minimal inhibitory concentration
[10] = E. faecium SR7917 (VRE), CAMHB, 35°C, 16 to 20 hours
[11] = ATCC13883, K. pneumoniae ATCC 13883, CAMHB, 35°C, 16 to 20 hours, read-out: Minimal inhibitory concentration
[12] = S. aureus SR3637 (MRSA), CAMHB, 35°C, 16 to 20 hours
[13] = S. pneumoniae Type I, CAMHB, 35°C, 16 to 20 hours
[14] = ATCC27853, P. aeruginosa ATCC 27853, CAMHB, 35°C, 16 to 20 hours, read-out: Minimal inhibitory concentration
[15] = ATCC29212, E. faecalis ATCC 29212, CAMHB, 35°C, 16 to 20 hours, read-out: Minimal inhibitory concentration

SMILES | MIC [1, 4] [µg/mL] | inhibition % [2] | MIC (A. baumannii ATCC 19606; [5]) [µg/mL] | MIC (H. influenzae ATCC 10211; [6]) [µg/mL] | MIC (E. faecalis SR7914 (VRE); [7]) [µg/mL] | MIC (E. faecium ATCC 19434; [8]) [µg/mL] | MIC (E. coli ATCC 25922; [9]) [µg/mL] | MIC (E. faecium SR7917 (VRE); [10]) [µg/mL] | MIC (K. pneumoniae ATCC 13883; [11]) [µg/mL] | MIC (S. aureus SR3637 (MRSA); [12]) [µg/mL] | MIC (S. pneumoniae Type I; [13]) [µg/mL] | MIC (P. aeruginosa ATCC 27853; [14]) [µg/mL] | MIC (E. faecalis ATCC 29212; [15]) [µg/mL] | also measured
COc1ccc(C2C=C(c3ccc(Br)cc3)N=C3NC(NS(C)(=O)=O)=NN32)cc1 (centres unmarked) [Chemical #1] | > 64 | 88.6 (6.8) % | > 64 | > 64 | > 64 | > 64 | > 64 | > 64 | > 64 | > 64 | > 64 | > 64 | > 64 | –
COCCN(CCOC)P1(=O)C=C(c2ccccc2)SC(c2ccccc2)=C1 [Chemical #2] | – | 69.0 (2.4) % | – | – | – | – | – | – | – | – | – | – | – | MIC [1]: 8 µg/mL (≈ 19.3 µM); MIC (A. baumannii ATCC 19606; ATCC19606, read-out: Minimal inhibitory concentration): > 64 µg/mL; MIC (H. influenzae ATCC 10211; ATCC10211, read-out: Minimal inhibitory concentration): > 64 µg/mL; MIC (E. faecalis SR7914 (VRE); VRE): 32 µg/mL (≈ 77 µM); MIC (E. faecium ATCC 19434; ATCC19434, read-out: Minimal inhibitory concentration): > 64 µg/mL; MIC (E. coli ATCC 25922; ATCC25922, read-out: Minimal inhibitory concentration): > 64 µg/mL; MIC (E. faecium SR7917 (VRE); VRE): > 64 µg/mL; MIC (K. pneumoniae ATCC 13883; ATCC13883, read-out: Minimal inhibitory concentration): > 64 µg/mL; MIC (S. aureus SR3637 (MRSA); MRSA): 8 µg/mL (≈ 19.3 µM); MIC (S. pneumoniae Type I): 64 µg/mL (≈ 154 µM); MIC (P. aeruginosa ATCC 27853; ATCC27853, read-out: Minimal inhibitory concentration): > 64 µg/mL; MIC (E. faecalis ATCC 29212; ATCC29212, read-out: Minimal inhibitory concentration): 32 µg/mL (≈ 77 µM); antibacterial activity (in words) [3]: inhibited the growth of Staphylococcus spp. and Enterococcus spp; also recorded: no activity against other Gram-positive species or any of the Gram-negative pathogens tested
O=C(NNS(=O)(=O)c1cc(Cl)ccc1Cl)c1cc2c(s1)CCCC2 [Chemical #3] | > 64 | 68.5 (1.7) % | > 64 | > 64 | > 64 | > 64 | > 64 | > 64 | > 64 | > 64 | > 64 | > 64 | > 64 | –
O=C(NNC(=S)NC1CC2CCC1C2)c1cc2ccccc2cc1O (centres unmarked) [Chemical #4] | > 32 | 64.4 (5.8) % | > 32 | > 32 | > 32 | > 32 | > 32 | > 32 | > 32 | > 32 | > 32 | > 32 | > 32 | –
O=C(c1cccc(-n2cnnc2)c1)N1CC2CCC(Cc3cccc(Cl)c3)C2C1 (centres unmarked) [Chemical #5] | > 64 | 46.7 (11.4) % | > 64 | > 64 | > 64 | > 64 | > 64 | > 64 | > 64 | > 64 | > 64 | > 64 | > 64 | –
CS(=O)(=O)NC1=NN2C(=NC(c3ccccc3)=CC2c2ccccc2Cl)N1 (centres unmarked) [Chemical #6] | > 64 | 40.9 (1.2) % | > 64 | > 64 | > 64 | > 64 | > 64 | > 64 | > 64 | > 64 | > 64 | > 64 | > 64 | –
C[C@@H](O)[C@H]1C(=O)N2C(C(=O)O)=C(S[C@@H]3CN[C@H](CNS(N)(=O)=O)C3)[C@H](C)[C@H]12 [Doripenem, reference compound] | ≤ 0.063 | – | 1 (≈ 2.38 µM) | 0.125 (≈ 0.297 µM) | 8 (≈ 19 µM) | 8 (≈ 19 µM) | ≤ 0.063 | 64 (≈ 152 µM) | 0.125 (≈ 0.297 µM) | 16 (≈ 38 µM) | ≤ 0.063 | 0.5 (≈ 1.19 µM) | 1 (≈ 2.38 µM) | Minimal inhibitory concentration [1, 4]: ≦0.063 μg/mL
